In BigSolDB 2.1:

Oc1cccc(/C=N\NC(=S)NC2CCCCC2)c1
Conditions	solubility (mole fraction)
in PEG-400, 298.15 K	0.071
in PEG-400, 308.15 K	0.0774
in PEG-400, 318.15 K	0.0845
in PEG-400, 328.15 K	0.0929
in PEG-400, 338.15 K	0.101

solubility (mole fraction)
Conditions	in ethanol	in ethyl acetate	in ethylene glycol	in isopropanol	in propylene glycol	in transcutol	in water
298.15 K	0.0135	0.0104	0.00185	0.0302	0.0319	0.0938	3.9e-07
308.15 K	0.0141	0.0117	0.00225	0.0313	0.0332	0.0978	5.85e-07
318.15 K	0.0149	0.0132	0.0029	0.0323	0.0345	0.102	9.09e-07
328.15 K	0.0156	0.0147	0.00358	0.0335	0.036	0.106	1.36e-06
338.15 K	0.0164	0.0167	0.00454	0.0345	0.0376	0.111	1.88e-06
